Source: US10730892B2, “Homoallylamines as formaldehyde-responsive triggers” (The Regents of the University of California, priority 2015, dated 2020)
Values joined by “and” are separate entries in the source; they are usually repeats but may differ in a detail not shown here. Equal entries are not always repeated. Where two headings read alike, the source gives them in different places.

Key:
[1] = Fluorescence properties of compounds 3, 4, 5 and FP1 (Table 1); format: physicochemical
Source text: Such red-shifted fluorophores are desirable because of low autofluorescence, minimal phototoxicity, and negligible interference from biomolecules when employed in live cell imaging. […] In the presence of FA, a reversible condensation event yielded an iminium intermediate which can undergo a charge-promoted [3,3]-sigmatropic rearrangement-hydrolysis sequence to expel the aryl nitro group and afford a highly fluorescent indole-3-carboxaldehyde product (ΦF=0.11) (Table 1). Of note, the aldehyde is strategically positioned at C3 such that after the reaction cascade, the N1 lone pair electrons can delocalize into the π-system rather than quench fluorescence via an acceptor-excited PeT (a-PeT) pathway. In this regard, silicon rhodol 3, without the carboxaldehyde, is non-fluorescent (Table 1).

HEK293TN and NS1 cells = conditions: 1 μM FP1 for 8 min, imaged after 30 min and after 8 hrs
Source text: (§1) For example, semicarbazide-sensitive amine oxidase (SSAO) is primarily localized to the plasma membrane (Andres et al., J. Histochem. Cytochem. 2001, 49:209). Thus, both HEK293TN and NS1 cells were costained with ER-Tracker Green, LysoTracker Green DND-26, and MitoTracker Green FM, fluorescent indicators that are known to selectively stain the endoplasmic reticulum, lysosome, and mitochondria, respectively in almost all cell types (FIG. 17A and FIG. 17B).

HEK293TN cells [2] = conditions: 100 scans at 25% laser power, pinhole 1 airy unit
Source text: as §1

HEK293TN cells [3] = test system: HEK293TN cells
Experimental: FIG. 9 depicts live-cell imaging of HEK293TN cells. […] Cells were irradiated with the 633 nm HeNe laser set at 3% power with a pinhole size of 1 airy unit. The emission was collected between 645 and 800 nm. Scale bar represents 20 μm. Pseudo-coloring represents intensity distribution from highest intensity indicated by white to the lowest intensity designated by black.
FIG. 10 depicts the quantification of observed fluorescence intensity by confocal imaging in HEK293TN cells after incubation with 1 mM, 2.5 mM or 5 mM FA for 1 (light grey bars), 2 (dark grey bars) and 3 hrs (black bars). A DMEM vehicle was added to control cells which was normalized to 1 (white bars). […] For each condition, a minimum of 5 images were averaged (n>5). Errors represent standard deviation.
(§2) HEK293TN cells were obtained from Prof. Paul Hergenrother (UIUC, Chemistry) and cultured in phenol-red free Dulbecco's modified eagle medium (DMEM, Corning) supplemented with 10% fetal bovine serum (FBS, Sigma Aldrich), and 1% penicillin/streptomycin (Corning). Neuroscreen-1 cells were obtained from Prof. Kai Zhang (UIUC, Biochemistry) and cultured in Ham's F-12K medium (Sigma Aldrich) supplemented with 15% horse serum (Hyclone), 2.5% fetal bovine serum (FBS, Sigma Aldrich), and 1% penicillin/streptomycin (Corning). Cells were incubated at 37° C. and 5% CO2. One day before imaging, cells were passed and plated on 8-well chambered coverglasses (Lab-Tek) at a density of 40,000 cells per mL (or 20,000 cells per well). Cells would reach 70-80% confluency before imaging. […] Samples of HEK293TN and NS1 cells for flow cytometry were prepared by passaging and seeding each well of a 6-well cluster culture dish (Cyto-One) with 300,000 cells one day before experiments. […] Stained cells were aspirated and serum-free DMEM added. Subsequently, a 10× concentrated FA solution was added to give a final concentration of 1.0 mM. 2.5 mM and 5 mM. After incubation cells with FA, the media was removed and replaced with serum-free DMEM. Finally, cells were trypsinized, pelleted via centrifugation, resuspended in phosphate-buffered saline (PBS) for flow cytometric analysis.
Prior to imaging, cells were allowed to recover in FA-free buffer for 30 min. […] Because FA is a powerful fixative, cell viability assays were performed to determine the cytotoxicity of FA under experimental conditions. A dye exclusion protocol was employed, utilizing trypan blue to selectively stain and distinguish dead cells from those that were viable. […] To further verify that the cell populations under investigation were indeed alive, DAPI, a cell permeable nuclear and chromosome counterstain, was employed to identify intact nuclei (FIG. 16).

NS1 cells = conditions: 37° C., 3 hrs
Experimental: (§3) Nuclear magnetic resonance (NMR) spectra were recorded on Varian 400 or 500 MHz spectrometers at 25° C. Chemical shifts are reported in ppm (δ) and are referenced to residual protic peaks. The following abbreviations are used to describe coupling constants: singlet (s), doublet (d), triplet (t), quartet (q), doublet doublet (dd), doublet triplet (dt), doublet quartet (dq), doublet doublet triplet (ddt), multiplet (m), and broad singlet (bs). IR spectra were recorded with a PerkinElmer Spectrum Two infrared (IR) spectrometer. High-resolution mass spectra were acquired with a Waters Q-TOF Ultima ESI mass spectrometer and a Waters Synapt G2-Si ESI/LC-MS mass spectrometer. UV-visible spectra were recorded on a Cary 60 spectrometer. Fluorescence spectra were acquired on a QuantaMaster-400 scanning spectrofluorometer with micro fluorescence quartz cuvettes (Science Outlet). Flow cytometry was performed on a BD Biosciences LSR II (San Jose, Calif., USA), and the data were analyzed as described using FACSDiva software.
as §2

HEK293TN cells [4] = conditions: 5 mM FA, 37° C., 3 hrs
Experimental: as §3, §2

Question: Which results are given for `C=CCC(NCc1ccc([N+](=O)[O-])cc1)c1cn(C)c2cc(C)c(C3=C4C=CC(=O)C=C4[Si](C)(C)c4c3cc3c5c4CCCN5CCC3)cc12` (stereo not shown) [FP1]?
Answer: Φ (quantum efficiency, ΦF) [1]: undetectable levels; ε [1]: 29000 M⁻¹ cm⁻¹; λabs [1]: 620 nm; λem [1]: 649 nm; dye efflux: change in fluorescence (HEK293TN and NS1 cells): no statistically significant decrease in fluorescence; photostability toward repeated irradiation (HEK293TN cells [2]): no decrease in fluorescence; fold increase in fluorescence intensity (confocal) (HEK293TN cells [3]; 2 μM FP1, 1 mM FA, 1 hr): 1.2 fold; fold increase in fluorescence intensity (confocal) (HEK293TN cells [3]; 2 μM FP1, 1 mM FA, 2 hrs): 1.3 fold; fold increase in fluorescence intensity (confocal) (HEK293TN cells [3]; 2 μM FP1, 1 mM FA, 3 hrs): 1.6 fold; fold increase in fluorescence intensity (confocal) (HEK293TN cells [3]; 2 μM FP1, 2.5 mM FA, 1 hr): 1.2 fold; fold increase in fluorescence intensity (confocal) (HEK293TN cells [3]; 2 μM FP1, 2.5 mM FA, 2 hrs): 1.7 fold; fold increase in fluorescence intensity (confocal) (HEK293TN cells [3]; 2 μM FP1, 2.5 mM FA, 3 hrs): 2.2 fold; fold increase in fluorescence intensity (confocal) (HEK293TN cells [3]; 2 μM FP1, 5 mM FA, 1 hr): 2.1 fold; fold increase in fluorescence intensity (confocal) (HEK293TN cells [3]; 2 μM FP1, 5 mM FA, 2 hrs): 2.6 fold; fold increase in fluorescence intensity (confocal) (HEK293TN cells [3]; 2 μM FP1, 5 mM FA, 3 hrs): ~3 fold and 2.9 fold and 2.8 fold; fluorescence turn-on (flow cytometry) (NS1 cells; NS1, 0.25 mM FA): 42%; fluorescence turn-on (flow cytometry) (NS1 cells; NS1, 0.5 mM FA): 50%; fold increase by flow cytometry (NS1 cells; NS1, 5 mM FA): 4.2 fold; fold turn-on, median APC-A fluorescence intensity (flow cytometry) (HEK293TN cells [4]): ~2.5 fold
